Read-outs that look alike come from different tables or passages of the source.
Legend:
[1] = test system: carrageenin-induced localized edema; assay: Carrageenin-induced localized edema method; format: in vivo; conditions: rats, 100 mg/kg orally at -1, 0, 1 and 2.5 hours; for inhibition in vivo at 100 mg/kg: Rattus norvegicus, po
Protocol: (a) Carrageenin-induced localized edema method
0.1 ml of a 1% carrageenin solution is injected in the metatarsal flexor muscles of the right hind limb of rats at time 0. The animals of the treated group are additionally orally administered 100 mg/kg of the test derivative, respectively one hour prior to injection of the phlogogenic agent, simultaneously with said injection, and then 1 hour and 2.5 hours thereafter. The determinations effected by means of a ROCH micrometer at times 0, 1 hour, 2 hours, 3 hours and 5 hours after carrageenin administration make it possible to determine, as a function of time, the percent anti-inflammatory activity with respect to the reference group.

[2] = test system: A.D.P.-induced blood-platelet aggregation; assay: A.D.P.-induced blood-platelet aggregation; format: in vivo, Wistar rats; conditions: rats, 100 mg/kg orally, 3 hours after treatment, 10 μM A.D.P. solution, with respect to control group; for inhibition at 100 mg/kg: Rattus norvegicus, po
Protocol: (§1) Blood is taken from the jugular vein of Wistar rats. From this citrated blood, and after centrifugation, is reconstituted a plasma containing 600,000 ± 20,000 blood-platelets per ml which is used in all aggregation determinations.
(§2) 0.4 ml plasma is placed in a siliconized tube provided with a magnet bar, also siliconized. The tube is introduced into an aggregometer coupled with an apparatus for recording optical density variations. When light transmission has reached a stable value, 0.5 ml of a solution containing 10 μM A.D.P. (Adenosine-Di-Phosphate) is introduced into the tube.
(§3) Blood-platelet aggregation causes an increase of light transmission followed by a decrease subsequent to the deaggregation phase.
(§4) The maximal optical density variation thus determined characterizes the intensity of the aggregation.
(§5) Different groups of 20 rats are used, each group being orally administered a test derivative at a dosage of 100 mg/kg.

[3] = test system: collagen-induced blood-platelet aggregation; assay: Collagen-induced blood-platelet aggregation; format: in vivo, Wistar rats; conditions: rats, 100 mg/kg orally, 3 hours after treatment, collagen (bovine tendon extract), with respect to control group; for inhibition at 100 mg/kg: Rattus norvegicus, po, read-out: Percent inhibition of blood-platelet aggregation, Collagen
Protocol: as §1, §2, §3, §4
The A.D.P. solution is substituted with a collagen solution (bovine tendon extract).
as §5

[4] = test system: ovalbumen-induced systemic edema; assay: Ovalbumen-induced systemic edema method; format: in vivo; conditions: rats, 100 mg/kg orally 1 hour before and with ovalbumen; for inhibition in vivo at 100 mg/kg: Rattus norvegicus, po
Protocol: (b) Ovalbumen-induced systemic edema method
Simultaneous injection of 1 ml ovalbumen and 0.5 ml of a 1% aqueous Evans Blue solution is effected in rats. On the other hand, the animals of the treated group are administered orally 100 mg/kg of the test derivative one hour prior to ovalbumen administration and simultaneously with said administration. The intensity of the phenomenon thus induced is scored according to a scale from 1 to 5 depending on the progress of the inflammatory syndrome. The mean intensity of the edem and the percent decrease of the edema reaction with respect to the control group are thus determined as a function of time.

[5] = 1 hour after carrageenin, read-out: Percent anti-inflammatory activity after 1 hour
[6] = 2 hours after carrageenin, read-out: Percent anti-inflammatory activity after 2 hours
[7] = 3 hours after carrageenin, read-out: Percent anti-inflammatory activity after 3 hours
[8] = 5 hours after carrageenin, read-out: Percent anti-inflammatory activity after 5 hours
[9] = 2 hours after ovalbumen, read-out: Percent anti-inflammatory activity after 2 hours
[10] = 3 hours after ovalbumen, read-out: Percent anti-inflammatory activity after 3 hours
[11] = read-out: Percent inhibition of blood-platelet aggregation, A.D.P.

Structure (SMILES) | inhibition in vivo at 100 mg/kg [1, 5] [%] | inhibition in vivo at 100 mg/kg [1, 6] [%] | inhibition in vivo at 100 mg/kg [1, 7] [%] | inhibition in vivo at 100 mg/kg [1, 8] [%] | inhibition at 100 mg/kg ([2]; 3 h, heading: Percent inhibition of blood-platelet aggregation) [%] | inhibition at 100 mg/kg [3] [%] | inhibition in vivo at 100 mg/kg [4, 9] [%] | inhibition in vivo at 100 mg/kg [4, 10] [%] | inhibition at 100 mg/kg [2, 11] [%] | Percent anti-inflammatory activity after 1 hour ([1]; 1 hour after carrageenin) [%] | Percent anti-inflammatory activity after 2 hours ([1]; 2 hours after carrageenin) [%] | Percent anti-inflammatory activity after 3 hours ([1]; 3 hours after carrageenin) [%] | Percent anti-inflammatory activity after 5 hours ([1]; 5 hours after carrageenin) [%] | Percent inhibition of blood-platelet aggregation, A.D.P. [2] [%] | Percent inhibition of blood-platelet aggregation, Collagen [3] [%] | Percent anti-inflammatory activity after 2 hours ([4]; 2 hours after ovalbumen) [%] | Percent anti-inflammatory activity after 3 hours ([4]; 3 hours after ovalbumen) [%]
CC1NCc2ccsc2C1c1ccccc1 (stereo not drawn) [derivative n°2, 6-Methyl-7-phenyl-4,5,6,7-tetrahydro-thieno[3,2-c]pyridine] | 42 | 48 | 51 | 54 | 62.4 | 92.7 | 42 | 50 | – | – | – | – | – | – | – | – | –
c1ccc(C2CNCc3ccsc32)cc1 (stereo not drawn) [derivative n°4, 7-Phenyl-4,5,6,7-tetrahydro-thieno[3,2-c]pyridine] | 38 | 44 | 49 | 53 | – | 95 | 54 | 62 | 64 | – | – | – | – | – | – | – | –
CN1Cc2ccsc2C(c2ccccc2)C1 (stereo not drawn) [derivative n°6, 5-Methyl-7-phenyl-4,5,6,7-tetrahydro-thieno[3,2-c]pyridine] | 45 | 52 | 56 | 58 | – | 90.4 | 47 | 55 | 61.7 | – | – | – | – | – | – | – | –
COc1ccc(C2CN(Cc3ccccc3Cl)Cc3sccc32)cc1 (stereo not drawn) [derivative n°7, 6-o-Chlorobenzyl-4-p-methoxyphenyl-4,5,6,7-tetrahydro-thieno[2,3-c]pyridine] | 44 | 50 | 54 | 59 | – | 90.7 | 52 | 59 | 61.5 | – | – | – | – | – | – | – | –
N#Cc1ccccc1CN1Cc2sccc2C(c2ccccc2)C1 (stereo not drawn) [derivative n°8, 6-o.Cyanobenzyl-4-phenyl-4,5,6,7-tetrahydro-thieno[2,3-c]pyridine] | 42 | 49 | 53 | 56 | – | 92.5 | 46 | 54 | 63.2 | – | – | – | – | – | – | – | –
Clc1ccc(C2CN(Cc3ccccc3Cl)Cc3sccc32)cc1 (stereo not drawn) [derivative n°9, 6-o.Chlorobenzyl-4-p.chlorophenyl-4,5,6,7-tetrahydro-thieno[2,3-c]pyridine] | 44 | 52 | 55 | 57 | – | 93.8 | 48 | 56 | 64.3 | – | – | – | – | – | – | – | –
Cc1ccc(C2CN(Cc3ccccc3Cl)Cc3sccc32)cc1 (stereo not drawn) [derivative n°10, 6-o.Chlorobenzyl-4-p.tolyl-4,5,6,7-tetrahydrothieno[2,3-c]pyridine] | 38 | 45 | 48 | 52 | – | 96 | 53 | 60 | 65 | – | – | – | – | – | – | – | –
Clc1ccccc1CN1Cc2sccc2C(c2ccccc2)C1 (stereo not drawn) [derivative n°11, 6-o.Chlorobenzyl-4-phenyl-4,5,6,7-tetrahydrothieno[2,3-c]pyridine] | 39 | 45 | 49 | 55 | – | 91.2 | 51 | 58 | 62.8 | – | – | – | – | – | – | – | –
c1ccc(CN2Cc3sccc3C(c3ccccc3)C2)cc1 (stereo not drawn) [derivative n°12, 6-Benzyl-4-phenyl-4,5,6,7-tetrahydro-thieno[2,3-c]pyridine] | 47 | 53 | 57 | 60 | – | 93.3 | 47 | 55 | 63.7 | – | – | – | – | – | – | – | –
Fc1ccccc1CN1Cc2sccc2C(c2ccccc2)C1 (stereo not drawn) [derivative n°13, 6-o.Fluorobenzyl-4-phenyl-4,5,6,7-tetrahydrothieno[2,3-c]pyridine] | 46 | 51 | 55 | 57 | – | 94.8 | 43 | 50 | 64.3 | – | – | – | – | – | – | – | –
COc1cc(CN2Cc3sccc3C(c3ccccc3)C2)cc(OC)c1OC (stereo not drawn) [derivative n°14, 4-Phenyl-6-(3,4,5-trimethoxy-benzyl)-4,5,6,7-tetrahydro-thieno[2,3-c]pyridine] | 37 | 44 | 49 | 54 | – | 93.9 | 43 | 52 | 64.1 | – | – | – | – | – | – | – | –
COC(=O)c1ccccc1CN1Cc2sccc2C(c2ccccc2)C1 (stereo not drawn) [derivative n°15, 6-o.Methoxycarbonylbenzyl-4-phenyl-4,5,6,7-tetrahydro-thieno[2,3-c]pyridine] | 39 | 47 | 50 | 54 | – | 92.3 | 54 | 62 | 61.7 | – | – | – | – | – | – | – | –
O=C(O)c1ccccc1CN1Cc2sccc2C(c2ccccc2)C1 (stereo not drawn) [derivative n°16, 6-o.Carboxybenzyl-4-phenyl-4,5,6,7-tetrahydro-thieno[2,3-c]pyridine] | 39 | 45 | 50 | 52 | – | 94.1 | 49 | 56 | 63.2 | – | – | – | – | – | – | – | –
O=[N+]([O-])c1ccc(CN2Cc3sccc3C(c3ccccc3)C2)cc1 (stereo not drawn) [derivative n°17, 6-p.Nitrobenzyl-4-phenyl-4,5,6,7-tetrahydro-thieno[2,3-c]pyridine] | 42 | 50 | 54 | 58 | – | 95 | 43 | 51 | 63.9 | – | – | – | – | – | – | – | –
Cc1ccc(N2Cc3sccc3C(c3ccccc3)C2)cc1 (stereo not drawn) [derivative n°18, 4-Phenyl-6-p.tolyl-4,5,6,7-tetrahydro-thieno[2,3-c]pyridine] | – | – | – | – | – | – | – | – | – | 40 | 48 | 53 | 56 | 62.5 | 93.5 | 47 | 56
